For data set [1], the system named is HGC-27. Briefly: Antiproliferative activity against human HGC-27 cells assessed as inhibition of cell growth incubated for 72 hrs by MTT assay. Particulars: HGC-27, 72 h. It counts as functional, cell-based. In general terms: Tetrazolium assays rely on reduction of a dye to a coloured formazan, in cell work by metabolically active cells.
Data set [2] is described as follows: Cytotoxicity against HUVEC cells assessed as inhibition of cell growth incubated for 72 hrs by MTT assay. It counts as toxicity, cell-based. Particulars: human.
Data set [3] concerns the target T1, von Hippel-Lindau disease tumor suppressor/Vascular endothelial growth factor receptor 2 (Homo sapiens, UniProt P35968+P40337). Put plainly: PROTAC activity at VHL/VEGFR2 in human HGC-27 cells assessed as induction of VEGFR2 degradation at 1 uM measured after 4 hrs by Western blot analysis relative to control. The data set is classed as cell-based. In general terms: A western blot detects proteins with antibodies after separation by electrophoresis.

For data set [4], the target named is T1, von Hippel-Lindau disease tumor suppressor/Vascular endothelial growth factor receptor 2. Briefly: PROTAC activity at VHL/VEGFR2 in human HGC-27 cells assessed as residual activity by measuring VEGFR2 expression level at 1 uM incubated for 24 hrs followed by compound washout and measured after 12 hrs by Western blot analysis relative to control. It counts as cell-based.

Data set [5] shares this target. Briefly: PROTAC activity at VHL/VEGFR2 in human HGC-27 cells assessed as induction of VEGRF2 protein degradation at 1 uM preincubated with VH032 for 2 hrs followed by compound addition and measured after 24 hrs by Western blot analysis. It counts as cell-based.
Data set [6] has the same target. Put plainly: PROTAC activity at VHL/VEGFR2 in human HGC-27 cells assessed as reduction in relative VEGRF2 expression level at 1 uM preincubated with VH032 for 2 hrs followed by compound addition and measured after 24 hrs by Western blot analysis. It counts as cell-based.
Data set [7] shares this target. Put plainly: PROTAC activity at VHL/VEGFR2 in human HGC-27 cells assessed as reduction in relative VEGRF2 expression level at 1 uM preincubated with MG-132 for 2 hrs followed by compound addition and measured after 24 hrs by Western blot analysis. It counts as cell-based.
For data set [8] the target is unchanged. Briefly: PROTAC activity at VHL/VEGFR2 in human HGC-27 cells assessed as reduction in relative VEGRF2 expression level at 1 uM preincubated with MLN4924 for 2 hrs followed by compound addition and measured after 24 hrs by Western blot analysis. The data set is classed as cell-based.
A short description of data set [9]: Effect on VEGFR2 mRNA expression in human HGC-27 cells at 0.1 uM incubated for 24 hrs by qPCR analysis relative to control. It counts as functional. In general terms: Quantitative PCR measures a nucleic acid by following its amplification.
Data set [10] is described as follows: Effect on VEGFR2 mRNA expression in human HGC-27 cells at 0.33 uM incubated for 24 hrs by qPCR analysis relative to control. The data set is classed as functional.
A short description of data set [11]: Effect on VEGFR2 mRNA expression in human HGC-27 cells at 3.33 uM incubated for 24 hrs by qPCR analysis relative to control. The data set is classed as functional.
For data set [12], the system named is HGC-27. Briefly: Inhibition of cell migration in human HGC-27 cells assessed as suppression of cell migration at 3.3 uM incubated for 6 hrs by wound healing assay relative to control. The data set is classed as functional.
In data set [13] the test system is HGC-27. Put plainly: Inhibition of cell migration in human HGC-27 cells assessed as suppression of cell migration at 1 uM incubated for 24 hrs by wound healing assay relative to control. The data set is classed as functional.
Data set [14] deals with HGC-27. Put plainly: Inhibition of cell migration in human HGC-27 cells assessed as suppression of cell migration at 3.3 uM incubated for 24 hrs by wound healing assay relative to control. It counts as functional.
For data set [15], the system named is HGC-27. Put plainly: Antiinvasive activity in human HGC-27 cells assessed as reduction in number of invasive cells at 3.33 uM incubated for 24 hrs by transwell invasion assay (reference value: 118). It counts as functional.
Data set [16] deals with HGC-27. Put plainly: Induction of apoptosis in human HGC-27 cells assessed as late apoptotic cells at 0.033 uM incubated for 24 hrs by Annexin V-FITC/PI staining based analysis (reference value: 3%). It counts as functional.
Data set [17] deals with HGC-27. Briefly: Induction of apoptosis in human HGC-27 cells assessed as late apoptotic cells at 0.33 uM incubated for 24 hrs by Annexin V-FITC/PI staining based analysis (reference value: 3%). The data set is classed as functional.
Data set [18] concerns HGC-27. Briefly: Induction of apoptosis in human HGC-27 cells assessed as early apoptotic cells at 1 uM incubated for 24 hrs by Annexin V-FITC/PI staining based analysis (reference value: 1.7 %). It counts as functional.
In data set [19] the test system is HGC-27. Briefly: Induction of apoptosis in human HGC-27 cells assessed as necrotic cells at 1 uM incubated for 24 hrs by Annexin V-FITC/PI staining based analysis (reference value: 0.65 %). It counts as functional.
Data set [20] relates to HGC-27. Put plainly: Induction of apoptosis in human HGC-27 cells assessed as early apoptotic cells at 3.3 uM incubated for 24 hrs by Annexin V-FITC/PI staining based analysis (reference value: 1.7 %). The data set is classed as functional.
Data set [21] concerns HGC-27. Briefly: Induction of apoptosis in human HGC-27 cells assessed as necrotic cells at 3.3 uM incubated for 24 hrs by Annexin V-FITC/PI staining based analysis (reference value: 0.65 %). It counts as functional.
Data set [22] relates to HGC-27. Briefly: Induction of cell cycle arrest in human HGC-27 cells assessed as G0/G1 phase cells at 0.33 uM incubated for 24 hrs by PI staining based flow cytometric analysis (reference value: 47.4%). The data set is classed as functional.

Active and inactive are the calls of the source. No cut-off for these calls is given here.

T1 sequence (P35968 20-1356 limits assumed): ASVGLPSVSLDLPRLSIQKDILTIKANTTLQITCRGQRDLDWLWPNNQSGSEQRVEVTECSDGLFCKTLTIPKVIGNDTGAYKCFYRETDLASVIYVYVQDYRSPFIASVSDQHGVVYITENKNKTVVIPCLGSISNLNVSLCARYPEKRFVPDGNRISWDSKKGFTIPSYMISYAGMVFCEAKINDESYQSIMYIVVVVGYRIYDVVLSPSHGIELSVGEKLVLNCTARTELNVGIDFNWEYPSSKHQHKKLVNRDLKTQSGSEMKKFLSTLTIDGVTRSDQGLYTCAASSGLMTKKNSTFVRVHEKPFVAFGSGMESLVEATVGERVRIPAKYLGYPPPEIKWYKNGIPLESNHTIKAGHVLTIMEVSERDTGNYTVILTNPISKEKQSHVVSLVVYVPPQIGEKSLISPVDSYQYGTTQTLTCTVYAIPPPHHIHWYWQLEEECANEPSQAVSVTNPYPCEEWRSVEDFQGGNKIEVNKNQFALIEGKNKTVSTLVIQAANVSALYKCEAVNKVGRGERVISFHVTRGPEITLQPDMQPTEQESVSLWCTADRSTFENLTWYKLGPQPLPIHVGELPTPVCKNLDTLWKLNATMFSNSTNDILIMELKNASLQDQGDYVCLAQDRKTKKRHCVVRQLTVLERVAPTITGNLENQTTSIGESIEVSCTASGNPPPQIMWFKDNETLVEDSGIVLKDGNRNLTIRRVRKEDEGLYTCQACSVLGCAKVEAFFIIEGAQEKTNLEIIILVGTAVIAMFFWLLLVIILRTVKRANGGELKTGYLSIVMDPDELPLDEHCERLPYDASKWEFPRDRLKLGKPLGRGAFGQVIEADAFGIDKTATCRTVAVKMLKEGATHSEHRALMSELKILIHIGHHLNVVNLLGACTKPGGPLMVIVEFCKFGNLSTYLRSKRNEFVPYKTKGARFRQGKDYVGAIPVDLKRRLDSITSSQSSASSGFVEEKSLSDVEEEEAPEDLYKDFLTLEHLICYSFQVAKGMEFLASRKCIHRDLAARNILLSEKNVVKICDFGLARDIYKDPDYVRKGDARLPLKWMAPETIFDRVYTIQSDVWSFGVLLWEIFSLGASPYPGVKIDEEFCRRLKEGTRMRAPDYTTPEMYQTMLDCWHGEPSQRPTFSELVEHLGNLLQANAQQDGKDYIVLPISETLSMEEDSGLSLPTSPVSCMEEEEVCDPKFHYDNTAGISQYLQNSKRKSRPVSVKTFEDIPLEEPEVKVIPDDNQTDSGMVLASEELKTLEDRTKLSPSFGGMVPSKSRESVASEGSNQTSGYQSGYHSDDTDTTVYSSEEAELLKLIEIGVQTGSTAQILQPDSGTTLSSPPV
T1 sequence (P40337 whole entry partner): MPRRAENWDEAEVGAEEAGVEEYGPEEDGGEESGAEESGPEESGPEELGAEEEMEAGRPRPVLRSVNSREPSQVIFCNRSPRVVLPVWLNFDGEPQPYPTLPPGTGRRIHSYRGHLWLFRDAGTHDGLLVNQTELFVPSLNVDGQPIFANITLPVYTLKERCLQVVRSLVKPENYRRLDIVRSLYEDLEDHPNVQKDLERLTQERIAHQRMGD

In the case of `Cc1ccc(NC(=O)Cn2cc(-c3ccc4c(NC(=O)c5ccc(NC(=O)CCCCCCCCC(=O)N[C@H](C(=O)N6C[C@H](O)C[C@H]6C(=O)NCc6ccc(-c7scnc7C)cc6)C(C)(C)C)cc5)n[nH]c4c3)cn2)cc1C(F)(F)F`, the IC50 with HGC-27 [1] was found to be 2.03 µM. Further, in [2], the IC50 at 72 h came out at 7.07 µM. Besides, the Activity in [3] came to 16.9%; in data set [4], 66.3%; in data set [9] it was 90%; in data set [10], 83%; in [11] it was 105.3%; in the data set on HGC-27 [15], 4. Besides, the Activity in the data set with HGC-27 [16] came to 3%; in the data set with HGC-27 [17] it was 6.7%; in the data set on HGC-27 [18], 8.6%; with HGC-27 [19], 0.64%; in the data set on HGC-27 [20], 15%; with HGC-27 [21], 0.52%. Besides, in the data set with HGC-27 [22], the Activity was 23.9%. Further, the outcome in data set [5], in [6], in data set [7] and in [8] was inactive. The inhibition at 3.3 µM in the data set with HGC-27 [12] is 12.3%; in the data set with HGC-27 [14], 32.7%. The inhibition at 1 µM in the data set with HGC-27 [13] came out at 21.2%.

Usually IC50 stands for the concentration needed to halve the response being measured. In general, inhibition refers to the change of the read-out against control, counted positive when it falls.

(Values after ChEMBL document CHEMBL5247592, “Discovery of novel VEGFR-2-PROTAC degraders based on the localization of lysine residues via recruiting VHL for the treatment of gastric cancer” (Eur J Med Chem, 2022).)
